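Protocol summary: plate cells (96-well), add compound at 5 concentrations, incubate 48 h, interpolate endpoints linearly. Abbreviation: GI50, concentration required for 50% inhibition of growth.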 The source made the active and inactive calls. Cut-off read from the data, not from the text of the source: active = GI50 up to about 1.1 µM and inactive = higher.
Legend:
Experiment in all cases: NCI anticancer screen, dose series, 48 h
A498 = system: A498
A549 = system: A549
HCC 2998 = system: HCC 2998
HCT-116 = system: HCT-116
KM12 = system: KM12
LOX IMVI = system: LOX IMVI
MCF7 = system: MCF7
MDA-MB-231 = system: MDA-MB-231
Malme-3M = system: Malme-3M
NCI-H522 = system: NCI-H522
OVCAR-5 = system: OVCAR-5
RPMI-8226 = system: RPMI-8226
SF-539 = system: SF-539
SK-MEL-28 = system: SK-MEL-28
SK-MEL-2 = system: SK-MEL-2
TK-10 = system: TK-10
U-251 = system: U-251
UACC-257 = system: UACC-257
SK-OV-3 = system: SK-OV-3

With CC(C)C(OC(=O)c1ccc(NCc2cc(O)ccc2O)cc1)C(C)C the GI50 (A498) was 2.25 µM (inactive), the GI50 (A549) was 5.77 µM (inactive) and the GI50 (HCC 2998) was 2.96 µM (inactive). For the same compound, the GI50 (HCT-116) was 2.76 µM (inactive), the GI50 (KM12) was 2.6 µM (inactive) and the GI50 (LOX IMVI) was 0.776 µM (active). The GI50 (MCF7) was 2.87 µM (inactive), the GI50 (MDA-MB-231) was 2.07 µM (inactive) and the GI50 (Malme-3M) was 1.77 µM (inactive). For the same compound, the GI50 (NCI-H522) was 0.16 µM (active), the GI50 (OVCAR-5) was 2.09 µM (inactive) and the GI50 (RPMI-8226) was 0.194 µM (active). The GI50 (SF-539) was 1.09 µM (active), the GI50 (SK-MEL-28) was 1.45 µM (inactive) and the GI50 (SK-MEL-2) was 2.35 µM (inactive). The GI50 (TK-10) was 1.66 µM (inactive), the GI50 (U-251) was 1.14 µM (inactive) and the GI50 (UACC-257) was 1.39 µM (inactive).

N#Cc1nc(-c2ccc(-c3nc(C#N)c(N)o3)cc2)oc1N was tested, and the GI50 (A549) was > 10 µM (inactive), the GI50 (HCC 2998) was > 10 µM (inactive) and the GI50 (HCT-116) was > 10 µM (inactive). The GI50 (KM12) was > 10 µM (inactive), the GI50 (LOX IMVI) was > 10 µM (inactive) and the GI50 (MCF7) was > 10 µM (inactive). For the same compound, the GI50 (MDA-MB-231) was > 10 µM (inactive), the GI50 (Malme-3M) was > 10 µM (inactive) and the GI50 (NCI-H522) was > 10 µM (inactive). The GI50 (RPMI-8226) was > 10 µM (inactive), the GI50 (SF-539) was > 10 µM (inactive) and the GI50 (SK-MEL-28) was > 10 µM (inactive). The GI50 (SK-OV-3) was > 10 µM (inactive), the GI50 (TK-10) was > 10 µM (inactive) and the GI50 (UACC-257) was > 10 µM (inactive).

For O=C(Nc1ccccc1)c1cc(S(=O)(=O)N2CCNNC2=O)c(S)cc1Cl, the GI50 (A498) was > 100 µM (inactive), the GI50 (A549) was > 100 µM (inactive) and the GI50 (HCC 2998) was > 100 µM (inactive). The GI50 (HCT-116) was 40.1 µM (inactive), the GI50 (KM12) was > 100 µM (inactive) and the GI50 (LOX IMVI) was 43.7 µM (inactive). For the same compound, the GI50 (MCF7) was > 100 µM (inactive), the GI50 (MDA-MB-231) was 39 µM (inactive) and the GI50 (Malme-3M) was 56.1 µM (inactive). The GI50 (NCI-H522) was 24.7 µM (inactive), the GI50 (OVCAR-5) was > 100 µM (inactive) and the GI50 (RPMI-8226) was 33.9 µM (inactive). The GI50 (SF-539) was > 100 µM (inactive), the GI50 (SK-MEL-28) was > 100 µM (inactive) and the GI50 (SK-MEL-2) was > 100 µM (inactive). For the same compound, the GI50 (TK-10) was > 100 µM (inactive), the GI50 (U-251) was > 100 µM (inactive) and the GI50 (UACC-257) was > 100 µM (inactive).

CCOC(=O)[C@@H]1ON2O[C@@H](OC3CCCC3(c3ccccc3)c3ccccc3)C[C@H]3OC(=O)[C@@H]1C32 (some centres undefined) was tested, and the GI50 (A498) was > 100 µM (inactive), the GI50 (A549) was < 0.01 µM (active) and the GI50 (HCC 2998) was 41.8 µM (inactive). The GI50 (HCT-116) was 33.8 µM (inactive), the GI50 (KM12) was 15.6 µM (inactive) and the GI50 (LOX IMVI) was 37.8 µM (inactive). For the same compound, the GI50 (MCF7) was 20.8 µM (inactive), the GI50 (MDA-MB-231) was 25.2 µM (inactive) and the GI50 (NCI-H522) was 33.1 µM (inactive). For the same compound, the GI50 (OVCAR-5) was 20.9 µM (inactive), the GI50 (RPMI-8226) was 35.6 µM (inactive) and the GI50 (SF-539) was 24.9 µM (inactive). The GI50 (SK-OV-3) was 86.5 µM (inactive), the GI50 (TK-10) was 21.1 µM (inactive) and the GI50 (U-251) was 56.4 µM (inactive). For the same compound, the GI50 (UACC-257) was 21.4 µM (inactive).

In the case of O=c1[nH]c2c(c(=O)[nH]1)SC(c1ccccc1)C2 (centres undefined), the GI50 (A498) is reported as > 100 µM (inactive), the GI50 (A549) is reported as > 100 µM (inactive) and the GI50 (HCC 2998) is reported as > 100 µM (inactive). For the same compound, the GI50 (HCT-116) was > 100 µM (inactive), the GI50 (KM12) was > 100 µM (inactive) and the GI50 (LOX IMVI) was > 100 µM (inactive). For the same compound, the GI50 (MCF7) was 94 µM (inactive), the GI50 (MDA-MB-231) was > 100 µM (inactive) and the GI50 (Malme-3M) was > 100 µM (inactive). The GI50 (NCI-H522) was > 100 µM (inactive), the GI50 (OVCAR-5) was > 100 µM (inactive) and the GI50 (RPMI-8226) was > 100 µM (inactive). The GI50 (SF-539) was > 100 µM (inactive), the GI50 (SK-MEL-28) was > 100 µM (inactive) and the GI50 (SK-MEL-2) was 93.8 µM (inactive). For the same compound, the GI50 (U-251) was > 100 µM (inactive) and the GI50 (UACC-257) was > 100 µM (inactive).

O=C1c2cccc3cccc(c23)C(=O)N1CCCNOCCONCCCN1C(=O)c2cccc3cccc(c23)C1=O was tested, and the GI50 (A498) was > 100 µM (inactive), the GI50 (A549) was 95.9 µM (inactive) and the GI50 (HCC 2998) was 98.2 µM (inactive). For the same compound, the GI50 (HCT-116) was 27.4 µM (inactive), the GI50 (KM12) was > 100 µM (inactive) and the GI50 (LOX IMVI) was 43.5 µM (inactive). For the same compound, the GI50 (MCF7) was 64.7 µM (inactive), the GI50 (MDA-MB-231) was > 100 µM (inactive) and the GI50 (Malme-3M) was 91.2 µM (inactive). For the same compound, the GI50 (OVCAR-5) was > 100 µM (inactive), the GI50 (RPMI-8226) was 16.9 µM (inactive) and the GI50 (SK-MEL-28) was > 100 µM (inactive). For the same compound, the GI50 (SK-MEL-2) was > 100 µM (inactive), the GI50 (SK-OV-3) was > 100 µM (inactive) and the GI50 (TK-10) was > 100 µM (inactive). For the same compound, the GI50 (U-251) was 59.7 µM (inactive) and the GI50 (UACC-257) was 67.6 µM (inactive).

For Nc1cc(CO)cc(Nc2c3ccccc3nc3ccccc23)c1, the GI50 (A498) was 24.6 µM (inactive), the GI50 (A549) was 18.2 µM (inactive) and the GI50 (HCT-116) was 15.1 µM (inactive). For the same compound, the GI50 (KM12) was 16.3 µM (inactive), the GI50 (LOX IMVI) was 16.7 µM (inactive) and the GI50 (MCF7) was 15.5 µM (inactive). The GI50 (MDA-MB-231) was 12.1 µM (inactive), the GI50 (Malme-3M) was 16.5 µM (inactive) and the GI50 (NCI-H522) was 6.59 µM (inactive). The GI50 (OVCAR-5) was 16.7 µM (inactive), the GI50 (RPMI-8226) was 29.8 µM (inactive) and the GI50 (SF-539) was 17.6 µM (inactive). For the same compound, the GI50 (SK-MEL-28) was 17.8 µM (inactive), the GI50 (SK-MEL-2) was 14.1 µM (inactive) and the GI50 (SK-OV-3) was 16 µM (inactive). For the same compound, the GI50 (TK-10) was 16 µM (inactive), the GI50 (U-251) was 15.1 µM (inactive) and the GI50 (UACC-257) was 15.1 µM (inactive).

COc1ccc2[nH]c3c(c2c1)CCn1c-3nc2ccccc2c1=O was tested, and the GI50 (A549) was > 25 µM (inactive), the GI50 (HCC 2998) was > 25 µM (inactive) and the GI50 (HCT-116) was > 25 µM (inactive). For the same compound, the GI50 (KM12) was > 25 µM (inactive), the GI50 (MCF7) was > 25 µM (inactive) and the GI50 (MDA-MB-231) was > 25 µM (inactive). For the same compound, the GI50 (NCI-H522) was > 25 µM (inactive), the GI50 (OVCAR-5) was > 25 µM (inactive) and the GI50 (RPMI-8226) was > 25 µM (inactive). The GI50 (SF-539) was > 25 µM (inactive), the GI50 (SK-MEL-28) was > 25 µM (inactive) and the GI50 (SK-OV-3) was > 25 µM (inactive). For the same compound, the GI50 (TK-10) was > 25 µM (inactive), the GI50 (U-251) was > 25 µM (inactive) and the GI50 (UACC-257) was > 25 µM (inactive).
